{"source": "patent US20220323548A1", "about": "(priority 2019, published 2022)", "key": {"rat islets": {"system": "rat islets", "test": "Glucose-dependent insulin secretion from rat islets, rat insulin ELISA (part II)", "format": "cell-based", "settings": "28 mM glucose, Table 9", "text": "The pancreas of 8-week-old SD rats (Damul Science) was extracted, and islets were isolated."}, "human GLP-1R [1]": {"target": "human GLP-1R (Homo sapiens, UniProt P43220)", "sequence (P43220 24-463)": "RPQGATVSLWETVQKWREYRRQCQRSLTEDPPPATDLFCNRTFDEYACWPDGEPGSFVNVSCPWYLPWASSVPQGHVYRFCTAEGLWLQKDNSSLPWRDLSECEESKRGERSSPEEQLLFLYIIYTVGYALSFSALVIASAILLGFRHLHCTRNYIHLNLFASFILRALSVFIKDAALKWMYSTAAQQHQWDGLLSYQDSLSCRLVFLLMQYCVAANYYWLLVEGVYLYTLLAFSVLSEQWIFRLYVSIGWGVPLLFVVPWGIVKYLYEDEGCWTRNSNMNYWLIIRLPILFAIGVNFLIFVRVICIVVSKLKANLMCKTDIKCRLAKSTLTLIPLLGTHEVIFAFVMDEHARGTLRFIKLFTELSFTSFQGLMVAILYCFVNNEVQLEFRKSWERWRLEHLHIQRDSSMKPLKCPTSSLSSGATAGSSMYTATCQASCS", "test": "GLP-1 receptor luciferase reporter assay (part II, dimer analogs)", "settings": "CV-1 cells transfected with human GLP-1R and CRE, Table 8", "experimental": "Specifically, the fibroblast cell line CV-1 (1×10^4 cells/ml, Korea Cell Line Bank) was cultured on a 96-well white cell culture plate for 24 hours, and then human GLP-1R (pcDNA3.1_hGLP-1R) and cAMP response element (CRE, pcDNA3.1_hCRE) were added to perform transfection. After 24 hours, the medium was exchanged with a serum-free medium, followed by culture for 16 hours, and then each analog was treated for 6 hours. The expression level of luciferase, a reporter gene, by activated GLP-1R, was quantified by a luminometer, and the results are shown in Table 8."}, "[2]": {"test": "Pharmacokinetics after subcutaneous administration, Exendin-4 EIA (part II)", "settings": "mouse, in vivo, sc"}, "C57BKS/J dbdb mice": {"system": "C57BKS/J dbdb mice", "test": "Anti-diabetic (blood glucose lowering) effect in Type 2 diabetes mouse models", "settings": "20 nmole/kg s.c., 0-48 hours"}, "human GLP-1R [3]": {"target": "T1, human GLP-1R (human, UniProt P43220 24-463)", "test": "cell-based or functional assay"}, "human GLP-1R [4]": {"target": "T1, human GLP-1R", "test": "cell-based or functional assay", "remark": "listed apart in the source"}}, "note": "Positions of bridges follow the written chain, without caps; N, C: chain ends. Chains are numbered I, II in the order given. No end group written: not given here. *: point of attachment. X1 = CC(=O)N[C@@H]1[C@@H](O)[C@H](O[C@@H]2O[C@H](CO)[C@@H](O[C@@H]3O[C@H](CO[C@H]4O[C@H](CO)[C@@H](O)[C@H](O)[C@@H]4O[C@@H]4O[C@H](CO)[C@@H](O[C@@H]5O[C@H](CO[C@]6(C(=O)OCc7ccccc7)C[C@H](O)[C@@H](NC(C)=O)[C@H]([C@H](O)[C@H](O)CO)O6)[C@H](O)[C@H](O)[C@H]5O)[C@H](O)[C@H]4NC(C)=O)[C@@H](O)[C@H](O[C@H]4O[C@H](CO)[C@@H](O)[C@H](O)[C@@H]4O[C@@H]4O[C@H](CO)[C@@H](O[C@@H]5O[C@H](CO[C@]6(C(=O)OCc7ccccc7)C[C@H](O)[C@@H](NC(C)=O)[C@H]([C@H](O)[C@H](O)CO)O6)[C@H](O)[C@H](O)[C@H]5O)[C@H](O)[C@H]4NC(C)=O)[C@@H]3O)[C@H](O)[C@H]2NC(C)=O)[C@@H](CO)O[C@H]1NC(=O)C*; undeca‑saccharide = not defined here; Decanoyl = CCCCCCCCCC(=O)*", "data": [{"molecule": "I: H-HGEGTFTSDLSKQMEECAVRLFIEWLKC(X1)GGPSK(Decanoyl)-OH / II: H-HGEGTFTSDLSKQMEECAVRLFIEWLKC(X1)GGPSK(Decanoyl)-OH (disulfide I:17-II:17) [AGM-212-2, AGM-212(E17C & N28C-11 sugar)-S-S-AGM-212(E17C & N28C-11 sugar)]", "values": [{"measurement": "Insulin secretion from rat islets", "setting": "rat islets; 10 nM analog", "value": "14446.79 ± 654.34", "unit": "pg/mL"}, {"measurement": "Insulin secretion from rat islets", "setting": "rat islets; 100 nM analog", "value": "24954.72 ± 2741.89", "unit": "pg/mL"}, {"measurement": "Emax (fold induction over basal)", "setting": "human GLP-1R [1]", "value": "10.2 ± 1.3", "unit": "fold induction over basal"}, {"measurement": "Tmax", "setting": "[2]", "value": 2, "unit": "h"}, {"measurement": "half-life", "setting": "[2]", "value": 4.85, "unit": "h"}, {"measurement": "anti-diabetic effect (blood glucose lowering)", "setting": "C57BKS/J dbdb mice", "value": "increased degree of blood glucose lowering compared with Ex4 and AGM-212"}]}, {"molecule": "CCCCCCCCCC(=O)NCCCC[C@H](NC(=O)[C@H](CO)NC(=O)[C@@H]1CCCN1C(=O)CNC(=O)CNC(=O)[C@H](CC(N)=O)NC(=O)[C@H](CCCCN)NC(=O)[C@H](CC(C)C)NC(=O)[C@H](Cc1c[nH]c2ccccc12)NC(=O)[C@H](CSCC(=O)N[C@@H]1O[C@H](CO)[C@@H](O[C@@H]2O[C@H](CO)[C@@H](O[C@@H]3O[C@H](CO[C@H]4O[C@H](CO)[C@@H](O)[C@H](O)[C@@H]4O[C@@H]4O[C@H](CO)[C@@H](O[C@@H]5O[C@H](CO[C@]6(C(=O)OCc7ccccc7)C[C@H](O)[C@@H](NC(C)=O)[C@H]([C@H](O)[C@H](O)CO)O6)[C@H](O)[C@H](O)[C@H]5O)[C@H](O)[C@H]4NC(C)=O)[C@@H](O)[C@H](O[C@H]4O[C@H](CO)[C@@H](O)[C@H](O)[C@@H]4O[C@@H]4O[C@H](CO)[C@@H](O[C@@H]5O[C@H](CO[C@]6(C(=O)OCc7ccccc7)C[C@H](O)[C@@H](NC(C)=O)[C@H]([C@H](O)[C@H](O)CO)O6)[C@H](O)[C@H](O)[C@H]5O)[C@H](O)[C@H]4NC(C)=O)[C@@H]3O)[C@H](O)[C@H]2NC(C)=O)[C@H](O)[C@H]1NC(C)=O)NC(=O)[C@@H](NC(=O)[C@H](Cc1ccccc1)NC(=O)[C@H](CC(C)C)NC(=O)[C@H](CCCNC(=N)N)NC(=O)[C@@H](NC(=O)[C@H](C)NC(=O)[C@H](CSSC[C@H](NC(=O)[C@H](CCC(=O)O)NC(=O)[C@H](CCC(=O)O)NC(=O)[C@H](CCSC)NC(=O)[C@H](CCC(N)=O)NC(=O)[C@H](CCCCN)NC(=O)[C@H](CO)NC(=O)[C@H](CC(C)C)NC(=O)[C@H](CC(=O)O)NC(=O)[C@H](CO)NC(=O)[C@@H](NC(=O)[C@H](Cc1ccccc1)NC(=O)[C@@H](NC(=O)CNC(=O)[C@H](CCC(=O)O)NC(=O)CNC(=O)[C@@H](N)Cc1c[nH]cn1)[C@@H](C)O)[C@@H](C)O)C(=O)N[C@@H](C)C(=O)N[C@H](C(=O)N[C@@H](CCCNC(=N)N)C(=O)N[C@@H](CC(C)C)C(=O)N[C@@H](Cc1ccccc1)C(=O)N[C@H](C(=O)N[C@@H](CSCC(=O)N[C@@H]1O[C@H](CO)[C@@H](O[C@@H]2O[C@H](CO)[C@@H](O[C@@H]3O[C@H](CO[C@H]4O[C@H](CO)[C@@H](O)[C@H](O)[C@@H]4O[C@@H]4O[C@H](CO)[C@@H](O[C@@H]5O[C@H](CO[C@]6(C(=O)OCc7ccccc7)C[C@H](O)[C@@H](NC(C)=O)[C@H]([C@H](O)[C@H](O)CO)O6)[C@H](O)[C@H](O)[C@H]5O)[C@H](O)[C@H]4NC(C)=O)[C@@H](O)[C@H](O[C@H]4O[C@H](CO)[C@@H](O)[C@H](O)[C@@H]4O[C@@H]4O[C@H](CO)[C@@H](O[C@@H]5O[C@H](CO[C@]6(C(=O)OCc7ccccc7)C[C@H](O)[C@@H](NC(C)=O)[C@H]([C@H](O)[C@H](O)CO)O6)[C@H](O)[C@H](O)[C@H]5O)[C@H](O)[C@H]4NC(C)=O)[C@@H]3O)[C@H](O)[C@H]2NC(C)=O)[C@H](O)[C@H]1NC(C)=O)C(=O)N[C@@H](Cc1c[nH]c2ccccc12)C(=O)N[C@@H](CC(C)C)C(=O)N[C@@H](CCCCN)C(=O)N[C@@H](CC(N)=O)C(=O)NCC(=O)NCC(=O)N1CCC[C@H]1C(=O)N[C@@H](CO)C(=O)N[C@@H](CCCCNC(=O)CCCCCCCCC)C(=O)O)[C@@H](C)CC)C(C)C)NC(=O)[C@H](CCC(=O)O)NC(=O)[C@H](CCC(=O)O)NC(=O)[C@H](CCSC)NC(=O)[C@H](CCC(N)=O)NC(=O)[C@H](CCCCN)NC(=O)[C@H](CO)NC(=O)[C@H](CC(C)C)NC(=O)[C@H](CC(=O)O)NC(=O)[C@H](CO)NC(=O)[C@@H](NC(=O)[C@H](Cc1ccccc1)NC(=O)[C@@H](NC(=O)CNC(=O)[C@H](CCC(=O)O)NC(=O)CNC(=O)[C@@H](N)Cc1c[nH]cn1)[C@@H](C)O)[C@@H](C)O)C(C)C)[C@@H](C)CC)C(=O)O", "note": "[AGM-212-1, AGM-212(E17C & E24C-11 sugar)-S-S-AGM-212(E17C & E24C-11 sugar)]", "values": [{"measurement": "Insulin secretion from rat islets", "setting": "rat islets; 10 nM analog", "value": "14506.04 ± 3493.9", "unit": "pg/mL"}, {"measurement": "Insulin secretion from rat islets", "setting": "rat islets; 100 nM analog", "value": "20080 ± 8384.9", "unit": "pg/mL"}, {"measurement": "Emax (fold induction over basal)", "setting": "human GLP-1R [1]", "value": "10.1 ± 1.2", "unit": "fold induction over basal"}, {"measurement": "anti-diabetic effect (blood glucose lowering)", "setting": "C57BKS/J dbdb mice", "value": "reduced anti-diabetic effect"}]}, {"molecule": "HGEGTFTSDLSKQMEECAVRLFIEWLKC(undeca‑saccharide)GGPSK(Decanoyl) (reading uncertain; also: homodimer via Cys17–Cys17 disulfide)", "note": "[AGM-212-2]", "values": [{"measurement": "fold change of EC50 level compared with Ex4 (luciferase reporter)", "setting": "human GLP-1R [3]", "value": "≥ 6", "unit": "fold"}, {"measurement": "Emax (fold induction over basal), CRE-luciferase reporter", "setting": "human GLP-1R [4]", "value": 10.2, "unit": "fold induction over basal"}]}]}
